Legend:
[1] = xn = mol fraction of the nth substance listed; conditions: 101 kPa, Liquid; for mass density: Vibrating tube method; for viscosity: Capillary tube (Ostwald / Ubbelohde) method
[2] = refractive index (Na D-line) (dimensionless); xn = mol fraction of the nth substance listed; conditions: 298.15 K, 101 kPa, Liquid

ClC=C(Cl)Cl [trichloroethene] + Cc1ccccc1C
[1]
Conditions	mass density, 293.15 K [kg/m3]	mass density, 298.15 K [kg/m3]	mass density, 303.15 K [kg/m3]	viscosity, 298.15 K [mPa·s]
x1 = 0.0721	–	–	–	0.7421
x1 = 0.088	919.03	914.58	910.12	–
x1 = 0.1511	948.33	943.7	939.06	–
x1 = 0.1615	–	–	–	0.725
x1 = 0.2426	992.67	987.75	982.82	–
x1 = 0.2437	–	–	–	0.7095
x1 = 0.3181	–	–	–	0.6959
x1 = 0.3249	1034.35	1029.15	1023.95	–
x1 = 0.3895	1068.4	1062.98	1057.54	–
x1 = 0.3957	–	–	–	0.6808
x1 = 0.4775	1116.88	1111.15	1105.38	–
x1 = 0.4824	–	–	–	0.6644
x1 = 0.5495	1158.43	1152.41	1146.34	–
x1 = 0.558	–	–	–	0.6498
x1 = 0.6346	–	–	–	0.6363
x1 = 0.6384	1212.22	1205.79	1199.32	–
x1 = 0.7132	1259.66	1252.89	1246.08	–
x1 = 0.7158	–	–	–	0.6224
x1 = 0.79	1310.86	1303.68	1296.47	–
x1 = 0.802	–	–	–	0.6081
x1 = 0.8776	1372.25	1364.6	1356.92	–
x1 = 0.8818	–	–	–	0.595
x1 = 0.9559	–	–	–	0.5836
x1 = 0.9583	1431.95	1423.79	1415.62	–

[2]
Conditions	refractive index
x1 = 0.0721	1.501
x1 = 0.1615	1.499
x1 = 0.2437	1.4973
x1 = 0.3075	1.4958
x1 = 0.3957	1.4936
x1 = 0.4824	1.4917
x1 = 0.5643	1.4896
x1 = 0.6346	1.4875
x1 = 0.7158	1.4847
x1 = 0.806	1.4813
x1 = 0.8818	1.4788
x1 = 0.9637	1.4762

Cc1cccc(C)c1 [1,3-dimethylbenzene] + CC(=O)O
[1]
Conditions	mass density, 293.15 K [kg/m3]	mass density, 298.15 K [kg/m3]	mass density, 303.15 K [kg/m3]	viscosity, 298.15 K [mPa·s]
x2 = 0.0777	869.99	865.62	861.24	–
x2 = 0.0962	–	–	–	0.5885
x2 = 0.1623	876.98	872.54	–	–
x2 = 0.1625	–	–	–	0.5929
x2 = 0.2143	881.73	877.22	872.69	–
x2 = 0.2833	888.6	884	879.39	–
x2 = 0.3223	–	–	–	0.6061
x2 = 0.35	895.97	891.29	886.59	–
x2 = 0.3797	–	–	–	0.6144
x2 = 0.3896	900.67	895.94	891.18	–
x2 = 0.4773	–	–	–	0.6308
x2 = 0.4801	912.73	907.88	903	–
x2 = 0.557	–	–	–	0.6504
x2 = 0.5621	925.38	920.41	915.43	–
x2 = 0.6204	935.7	930.66	925.59	–
x2 = 0.6405	–	–	–	0.6798
x2 = 0.7182	–	–	–	0.7206
x2 = 0.7214	956.29	951.08	945.86	–
x2 = 0.7955	–	–	–	0.7754
x2 = 0.8155	980.67	975.31	969.94	–
x2 = 0.8721	–	–	–	0.8578
x2 = 0.8758	999.34	993.89	988.44	–
x2 = 0.9649	–	–	–	1.023
x2 = 0.9672	1034.28	1028.66	1023.08	–

[2]
Conditions	refractive index
x2 = 0.0962	1.4877
x2 = 0.1625	1.4829
x2 = 0.3223	1.4682
x2 = 0.3797	1.4616
x2 = 0.4773	1.4523
x2 = 0.557	1.4424
x2 = 0.6405	1.4319
x2 = 0.7182	1.421
x2 = 0.7955	1.4066
x2 = 0.8721	1.3931
x2 = 0.9649	1.3773

Cc1ccc(C)cc1 [1,4-dimethylbenzene] + CC(=O)O
[1]
Conditions	mass density, 293.15 K [kg/m3]	mass density, 298.15 K [kg/m3]	mass density, 303.15 K [kg/m3]	viscosity, 298.15 K [mPa·s]
x2 = 0.0415	864.09	859.71	855.31	–
x2 = 0.0863	–	–	–	0.6099
x2 = 0.1166	870.08	865.62	861.15	–
x2 = 0.157	873.55	869.05	864.53	–
x2 = 0.1651	874.28	869.76	865.24	–
x2 = 0.173	–	–	–	0.6095
x2 = 0.2386	–	–	–	0.6117
x2 = 0.2466	882	877.4	872.79	–
x2 = 0.2659	884.01	879.38	874.76	–
x2 = 0.3096	–	–	–	0.6159
x2 = 0.3246	890.49	885.78	881.08	–
x2 = 0.3987	–	–	–	0.625
x2 = 0.4234	902.44	897.64	892.81	–
x2 = 0.4717	909.04	904.17	899.29	–
x2 = 0.4897	–	–	–	0.6398
x2 = 0.5505	921.33	916.35	911.38	–
x2 = 0.5621	–	–	–	0.6575
x2 = 0.6323	–	–	–	0.68
x2 = 0.6435	938.19	933.07	927.95	–
x2 = 0.7212	–	–	–	0.7243
x2 = 0.7299	957.01	951.78	946.53	–
x2 = 0.7965	–	–	–	0.7753
x2 = 0.8099	977.97	972.61	967.24	–
x2 = 0.8784	–	–	–	0.8675
x2 = 0.8851	1001.76	996.29	990.81	–
x2 = 0.955	–	–	–	1.003
x2 = 0.9601	1030.99	1025.4	1019.76	–

[2]
Conditions	refractive index
x2 = 0.0863	1.4874
x2 = 0.173	1.4805
x2 = 0.2386	1.4748
x2 = 0.3096	1.4682
x2 = 0.3987	1.4598
x2 = 0.4897	1.4498
x2 = 0.5621	1.4414
x2 = 0.6323	1.4325
x2 = 0.7212	1.4202
x2 = 0.7965	1.4084
x2 = 0.8784	1.3939
x2 = 0.955	1.3791
